What was measured:
[1] = Microsomal stability (liver microsomal assay, mixed cofactors); predicted hepatic clearance; type: in vitro ADME; conditions: liver microsomes 1.0 mg protein/mL (+UDPGA +NADPH), 1 μM analyte, 37° C.; scaled with human liver weight and hepatic blood flow 1.3 L/hr/kg
How it was run: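 Compound at 1 μM with human or rat pooled liver microsomes, alamethicin-treated, pH 7.4 phosphate, NADPH-regenerating plus UDPGA cofactors, 37° C, sampled 0–70 min. Parent/internal standard ratio by RapidFire QToF MS; half-life from initial log-linear decay, scaled to intrinsic and predicted hepatic clearance and hepatic extraction.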

GLP-1R = GLP-1R (Homo sapiens (Human), UniProt P43220); experiment: GLP-1R activation: cAMP increase in CHO cells stably expressing GLP-1R; type: cell-based; conditions: cAMP increase, 10 point dose response, 30 minutes incubation at 37° C., read-out: EC50
How it was run: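 CHO cells stably expressing GLP-1R were incubated 1 h at 37 °C in medium with 1% BSA, then exposed to compound in a 10-point dose response for 30 min at 37 °C. cAMP rise was detected by HTRF (Gs Dynamic kit). EC50 came from a sigmoidal fit of response against log agonist concentration.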

Sequence of GLP-1R (P43220 24-463): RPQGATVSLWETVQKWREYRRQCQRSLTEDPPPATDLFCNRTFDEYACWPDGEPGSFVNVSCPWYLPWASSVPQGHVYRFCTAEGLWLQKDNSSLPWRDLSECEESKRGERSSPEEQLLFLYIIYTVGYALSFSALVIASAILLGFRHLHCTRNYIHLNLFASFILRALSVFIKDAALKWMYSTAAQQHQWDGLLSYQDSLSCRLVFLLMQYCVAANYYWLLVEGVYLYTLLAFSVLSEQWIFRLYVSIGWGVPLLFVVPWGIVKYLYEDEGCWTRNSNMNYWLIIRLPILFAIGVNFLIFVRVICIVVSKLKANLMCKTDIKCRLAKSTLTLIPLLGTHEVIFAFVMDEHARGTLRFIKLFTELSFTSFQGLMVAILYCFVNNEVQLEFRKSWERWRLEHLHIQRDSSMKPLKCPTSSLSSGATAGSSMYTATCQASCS

| Predicted Hepatic Clearance (Pred. Cl.) [1] [mL/min/kg] | EC50 (GLP-1R) [nM] | SMILES |
| --- | --- | --- |
| 3.5 | 57 | COCCn1c(Cc2c(F)cc(-c3cccc4c3OC(C)(c3ccc(C#N)cc3F)O4)c(F)c2F)nc2ccc(C(=O)O)cc21 (single isomer, unassigned) [Example 96, 2-(4-(2-(4-cyano-2-fluorophenyl)-2-methylbenzo[d][1, 3]dioxol-4-yl)-2,3,6-trifluorobenzyl)-1-(2-methoxyethyl)-1H-benzo[d]imidazole-6-carboxylic acid] |
| 4.33 | 17 | CC1(c2ccc(Cl)cn2)Oc2cccc(-c3cc(F)c(Cc4nc5ccc(C(=O)O)cc5n4C[C@@H]4CCO4)cc3F)c2O1 (single isomer, unassigned) [Example 46] |
| 5.83 | 3750 | COCCn1c(Cc2c(F)cc(-c3cccc4c3OC3(CCCc5cc(Cl)ccc53)O4)cc2F)nc2ccc(C(=O)O)cc21 (centres unmarked) [Example 56, 2-(4-(6′-chloro-3′,4′-dihydro-2′H-spiro[benzo[d][1,3]dioxole-2,1′-naphthalen]-4-yl)-2,6-difluorobenzyl)-1-(2-methoxyethyl)-1H-benzo[d]imidazole-6-carboxylic acid] |
| 4.17 | 350 | COCCn1c(Cc2ccc(-c3cccc4c3OC(c3ccc(C#N)cc3F)O4)cc2F)nc2ccc(C(=O)O)cc21 (single isomer, unassigned) [Example 34] |
| 2.83 | 12 | CCn1cnnc1Cn1c(Cc2c(F)cc(-c3cccc4c3OC(C)(c3ccc(Cl)cc3F)O4)cc2F)nc2ccc(C(=O)O)cc21 (centres unmarked) [Example 68, 2-(4-(2-(4-chloro-2-fluorophenyl)-2-methylbenzo[d][1, 3]dioxol-4-yl)-2,6-difluorobenzyl)-1-((4-ethyl-4H-1,2,4-triazol-3-yl)methyl)-1H-benzo[d]imidazole-6-carboxylic acid] |
| 12.7 | 130 | COCCn1c(Cc2c(F)cc(-c3cccc4c3OC(CCC(=O)O)(c3ccc(Cl)cc3)N4)cc2F)nc2ccc(C(=O)O)cc21 (centres unmarked) [Example 10, 2-(4-(2-(2-carboxyethyl)-2-(4-chlorophenyl)-2,3-dihydrobenzo[d]oxazol-7-yl)-2,6-difluorobenzyl)-1-(2-methoxyethyl)-1H-benzo[d]imidazole-6-carboxylic acid] |
| 3.5 | 1.9 | N#Cc1ccc(C2Oc3cccc(-c4cc(F)c(Cc5nc6ccc(C(=O)O)cc6n5C[C@@H]5CCO5)c(F)c4)c3O2)c(F)c1 (stereo partly drawn) [Example 30, (S)-2-(4-(2-(4-cyano-2-fluorophenyl)benzo [d][1,3]dioxol-4-yl)-2,6-difluorobenzyl)-1-(oxetan-2-ylmethyl)-1H-benzo[d]imidazole-6-carboxylic acid] |
| 2 | 78 | COCCn1c(Cc2c(F)cc(-c3cccc4c3OC(C)(c3ccc(Cl)cc3F)O4)cc2F)nc2ccc(C(=O)NS(=O)(=O)C3CC3)cc21 (racemic) [Example 3, 2-(4-(2-(4-chloro-2-fluorophenyl)-2-methylbenzo[d][1, 3]dioxol-4-yl)-2,6-difluorobenzyl)-N-(cyclopropylsulfonyl)-1-(2-methoxyethyl)-1H-benzo[d]imidazole-6-carboxamide] |
| 3.83 | 1.1 | N#Cc1ccc(C2Oc3cccc(-c4cc(F)c(Cc5nc6ccc(C(=O)O)cc6n5C[C@@H]5CCO5)c(F)c4)c3O2)c(F)c1 (single isomer, unassigned) [Example 42] |
| 13 | 639 | COCCn1c(Cc2csc(-c3cccc4c3OC(C)(c3ccc(Cl)cc3F)O4)c2)nc2ccc(C(=O)O)cc21 (centres unmarked) [Example 61, 2-((5-(2-(4-chloro-2-fluorophenyl)-2-methylbenzo[d][1, 3]dioxol-4-yl)thiophen-3-yl)methyl)-1-(2-methoxyethyl)-1H-benzo[d]imidazole-6-carboxylic acid] |
| 4.83 | 0.7 | CC1(c2ccc(Cl)cc2F)Oc2cccc(-c3cc(F)c(Cc4nc5ccc(C(=O)O)nc5n4CC4(CC#N)CC4)cc3F)c2O1 (centres unmarked) [Example 75, 2-(4-(2-(4-chloro-2-fluorophenyl)-2-methylbenzo[d][1, 3]dioxol-4-yl)-2,5-difluorobenzyl)-3-((1-(cyanomethyl)cyclopropyl)methyl)-3H-imidazo[4,5-b]pyridine-5-carboxylic acid] |
| 2.83 | 646 | COCCn1c(Cc2ccc(-c3cccc4c3OC(c3ccccc3)O4)cc2F)nc2ccc(C(=O)O)cc21 (single isomer, unassigned) [Example 35, 2-(2-fluoro-4-(2-phenylbenzo[d][1, 3]dioxol-4-yl)benzyl)-1-(2-methoxyethyl)-1H-benzo[d]imidazole-6-carboxylic acid] |
| <1.83 | 0.17 | CC1(c2ccc(Cl)cc2F)Oc2cccc(-c3cc(F)c(Cc4nc5ccc(C(=O)O)c(F)c5n4C[C@@H]4CCO4)c(F)c3)c2O1 (stereo partly drawn) [Example 2, 2-(4-(2-(4-chloro-2-fluorophenyl)-2-methylbenzo[d][1, 3]dioxol-4-yl)-2,6-difluorobenzyl)-7-fluoro-1-(((S)-oxetan-2-yl)methyl)-1H-benzo[d]imidazole-6-carboxylic acid] |
| 3.83 | 0.034 | CC1(c2ccc(Cl)cc2F)Oc2cccc(-c3cc(F)c(Cc4nc5ccc(C(=O)O)cc5n4C[C@@H]4CCO4)cc3F)c2O1 (stereo partly drawn) [Example 28, 2-(4-(2-(4-chloro-2-fluorophenyl)-2-methylbenzo[d][1, 3]dioxol-4-yl)-2,5-difluorobenzyl)-1-(((S)-oxetan-2-yl)methyl)-1H-benzo[d]imidazole-6-carboxylic acid] |
| 4.67 | 0.076 | CC1(c2ccc(Cl)cn2)Oc2cccc(-c3cc(F)c(Cc4nc5ccc(C(=O)O)cc5n4C[C@@H]4CCO4)cc3F)c2O1 (stereo partly drawn) [Example 29, 2-(4-(2-(5-chloropyridin-2-yl)-2-methylbenzo[d][1, 3]dioxol-4-yl)-2,5-difluorobenzyl)-1-(((S)-oxetan-2-yl)methyl)-1H-benzo[d]imidazole-6-carboxylic acid] |

| SMILES | Predicted Hepatic Clearance (Pred. Cl.) [1] [mL/min/kg] | EC50 (GLP-1R) [nM] |
| --- | --- | --- |
| CCC1(c2ccc(Cl)cc2F)Oc2cccc(-c3cc(F)c(Cc4nc5ccc(C(=O)O)cc5n4CCOC)c(F)c3)c2O1 (centres unmarked) [Example 53, 2-(4-(2-(4-chloro-2-fluorophenyl)-2-ethylbenzo[d][1,3]dioxol-4-yl)-2,6-difluorobenzyl)-1-(2-methoxyethyl)-1H-benzo[d]imidazole-6-carboxylic acid] | 13 | 1290 |
| COCCn1c(Cc2c(F)cc(-c3cccc4c3O[C@@](C)(c3ccc(Cl)cc3F)O4)cc2F)nc2ccc(C(=O)O)cc21 [Example 102, 2-(4-(2-(4-chloro-2-fluorophenyl)-2-methylbenzo[d][1, 3]dioxol-4-yl)-2,6-difluorobenzyl)-1-(2-methoxyethyl)-1H-benzo[d]imidazole-6-carboxylic acid] | 3.17 | 65 |
| COCCn1c(Cc2c(F)cc(-c3cccc4c3OC(C)(c3ccc(Cl)cc3F)O4)cc2F)nc2ccc(C(=O)O)cc21 (centres unmarked) [Example 19, 2-(4-(2-(4-chloro-2-fluorophenyl)-2-methylbenzo[d][1, 3]dioxol-4-yl)-2,6-difluorobenzyl)-1-(2-methoxyethyl)-1H-benzo[d]imidazole-6-carboxylic acid] | 2.5 | 0.97 |
| COCCn1c(Cc2c(F)cc(-c3cccc4c3O[C@](C)(c3ccc(Cl)cc3F)O4)cc2F)nc2ccc(C(=O)O)cc21 [Example 103, 2-(4-(2-(4-chloro-2-fluorophenyl)-2-methylbenzo[d][1, 3]dioxol-4-yl)-2,6-difluorobenzyl)-1-(2-methoxyethyl)-1H-benzo[d]imidazole-6-carboxylic acid] | 4.17 | 8.2 |
| CC1(c2ccc(Cl)cc2F)Oc2cccc(-c3cc(F)c(Cc4nc5ccc(C(=O)O)cc5n4C[C@@H]4CCO4)c(F)c3)c2O1 (stereo partly drawn) [Example 22, 2-(4-(2-(4-chloro-2-fluorophenyl)-2-methylbenzo[d][1, 3]dioxol-4-yl)-2,6-difluorobenzyl)-1-(((S)-oxetan-2-yl)methyl)-1H-benzo[d]imidazole-6-carboxylic acid] | <1.83 | 0.024 |
| CC1(c2ccc(Cl)cc2F)Oc2cccc(-c3cc(F)c(Cc4nc5ccc(C(=O)O)cc5n4CCOC(F)F)c(F)c3)c2O1 (centres unmarked) [Example 83, 2-(4-(2-(4-chloro-2-fluorophenyl)-2-methylbenzo[d][1, 3]dioxol-4-yl)-2,6-difluorobenzyl)-1-(2-(difluoromethoxy)ethyl)-1H-benzo[d]imidazole-6-carboxylic acid] | 3.3 | 13 |
| COCCn1c(Cc2c(F)cc(-c3c(F)ccc4c3OC(C)(c3ccc(Cl)cn3)O4)cc2F)nc2ccc(C(=O)O)cc21 (centres unmarked) [Example 100, 2-(4-(2-(5-chloropyridin-2-yl)-5-fluoro-2-methylbenzo[d][1, 3]dioxol-4-yl)-2,6-difluorobenzyl)-1-(2-methoxyethyl)-1H-benzo[d]imidazole-6-carboxylic acid] | 10.3 | 14 |

From patent publication US20250099431A1, “GLP-1R MODULATING COMPOUNDS” (priority 2020, published 2025)
